Each structure is given as a SMILES string.

The target of the experiment is T1, histamine H4 receptor (Homo sapiens, UniProt Q9H3N8).
T1 construct: expressed in transfected cells; host or cells: HEK293SFM cells (membrane preparation)
T1 sequence (Q9H3N8 whole entry): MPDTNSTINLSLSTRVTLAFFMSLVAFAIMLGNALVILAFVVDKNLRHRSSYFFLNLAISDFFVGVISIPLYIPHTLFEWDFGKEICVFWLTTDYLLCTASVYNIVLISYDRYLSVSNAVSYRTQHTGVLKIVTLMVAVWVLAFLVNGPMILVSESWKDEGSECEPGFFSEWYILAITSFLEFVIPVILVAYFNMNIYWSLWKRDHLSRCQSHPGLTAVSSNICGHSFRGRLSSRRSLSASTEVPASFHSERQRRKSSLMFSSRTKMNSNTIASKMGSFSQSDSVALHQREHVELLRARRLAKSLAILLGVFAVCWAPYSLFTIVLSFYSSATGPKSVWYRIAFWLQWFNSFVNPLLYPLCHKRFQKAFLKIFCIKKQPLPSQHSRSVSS
The experiment in a line: H4 Membrane Binding Assay (3H-Histamine displacement). Conditions: membranes of recombinant HEK293SFM cells, 10 nM 3H-Histamine, 1.5 hr at room temperature. The method, boiled down:
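Membranes from HEK293SFM cells expressing human H4 (also human H1–H3, mouse H4), prepared in ice-cold 50 mM Tris-HCl pH 7.5. [3H]-histamine displacement, nonspecific binding defined with 1000× unlabeled ligand. Bound radioactivity separated on PEI-treated GF/B filters and measured by liquid scintillation counting.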
Take `CC(Cc1ccc(Oc2ccccc2)cc1)NC(=O)c1ccc2c(N3CCN(C)CC3)nc(N)nc2c1` (stereo not drawn) [Example 142, 2-Amino-N-[1-methyl-2-(4-phenoxyphenyl)ethyl]-4-(4-methylpiperazin-1-yl)quinazoline-7-carboxamide]: the IC50 – broadly, the concentration that inhibits the measured activity by half – came out at 34 nM.
To `CC(Cc1ccc(OC2CCCC2)cc1)NC(=O)c1ccc2c(N3CCN(C)CC3)nc(N)nc2c1` (stereo not drawn) [Example 143, 2-Amino-N-{2-[4-(cyclopentyloxy)phenyl]-1-methylethyl}-4-(4-methylpiperazin-1-yl)quinazoline-7-carboxamide] belongs 37 nM; to `CN1CCN(c2nc(N)nc3cc(C(=O)NC(Cc4nc5ccccc5s4)C(=O)N(C)C)ccc23)CC1` (stereo not drawn) [Example 144, 2-Amino-N-[1-(1,3-benzothiazol-2-ylmethyl)-2-(dimethylamino)-2-oxoethyl]-4-(4-methylpiperazin-1-yl)quinazoline-7-carboxamide], 190 nM.
To `CN1CCN(c2nc(N)nc3cc(C(=O)NC(Cc4ccc5c(c4)OC(F)(F)O5)C(=O)N(C)C)ccc23)CC1` (stereo not drawn) [Example 145, 2-Amino-N-[1-[(2,2-difluoro-1,3-benzodioxol-5-yl)methyl]-2-(dimethylamino)-2-oxoethyl]-4-(4-methylpiperazin-1-yl)quinazoline-7-carboxamide] belongs 34 nM; to `CN1CCN(c2nc(N)nc3cc(C(=O)NC(Cc4cccc(Oc5ccccc5)c4)C(=O)N(C)C)ccc23)CC1` (stereo not drawn) [Example 146, 2-Amino-N-[2-(dimethylamino)-2-oxo-1-(3-phenoxybenzyl)ethyl]-4-(4-methylpiperazin-1-yl)quinazoline-7-carboxamide], 65 nM.
To `CN1CCN(c2nc(N)nc3cc(C(=O)NC(Cc4ccc(-c5ccccc5)s4)C(=O)N(C)C)ccc23)CC1` (stereo not drawn) [Example 147, 2-Amino-N-{2-(dimethylamino)-2-oxo-1-[(5-phenyl-2-thienyl)methyl]ethyl}-4-(4-methylpiperazin-1-yl)quinazoline-7-carboxamide] belongs 71 nM; to `CN1CCN(c2nc(N)nc3cc(C(=O)N[C@@H](Cc4ccc(-c5cccs5)cc4)C(=O)N(C)C)ccc23)CC1` [Example 148, 2-Amino-N-{(1S)-2-(dimethylamino)-2-oxo-1-[4-(2-thienyl)benzyl]ethyl}-4-(4-methylpiperazin-1-yl)quinazoline-7-carboxamide], 18 nM.
For the compound `CC(C)c1ccc(CC(NC(=O)c2ccc3c(N4CCN(C)CC4)nc(N)nc3c2)C(=O)N(C)C)cc1` (stereo not drawn) [Example 149, 2-Amino-N-[2-(dimethylamino)-1-(4-isopropylbenzyl)-2-oxoethyl]-4-(4-methylpiperazin-1-yl)quinazoline-7-carboxamide], the IC50 stood at 40 nM.
The same measure for `CN1CCN(c2nc(N)nc3cc(C(=O)NC(Cc4ccc(C(F)(F)F)cc4)C(=O)N(C)C)ccc23)CC1` (stereo not drawn) [Example 150, 2-Amino-N-{2-(dimethylamino)-2-oxo-1-[4-(trifluoromethyl)benzyl]ethyl}-4-(4-methylpiperazin-1-yl)quinazoline-7-carboxamide]: 44 nM; for `CN1CCN(c2nc(N)nc3cc(C(=O)NC(Cc4ccc(-c5ccccc5)cc4)c4nccs4)ccc23)CC1` (stereo not drawn) [Example 151, 2-amino-N-[2-biphenyl-4-yl-1-(1,3-thiazol-2-yl)ethyl]-4-(4-methylpiperazin-1-yl)quinazoline-7-carboxamide]: 69 nM.
To `COc1ccccc1-c1ccc(C[C@H](NC(=O)c2ccc3c(N4CCN(C)CC4)nc(N)nc3c2)C(=O)N(C)C)cc1` [Example 152, 2-Amino-N-{(1S)-2-(dimethylamino)-1-[(2′-methoxybiphenyl-4-yl)methyl]-2-oxoethyl}-4-(4-methylpiperazin-1-yl)quinazoline-7-carboxamide] belongs 10 nM; to `COc1cccc(-c2ccc(C[C@H](NC(=O)c3ccc4c(N5CCN(C)CC5)nc(N)nc4c3)C(=O)N(C)C)cc2)n1` [Example 153, 2-Amino-N-{(1S)-2-(dimethylamino)-1-[4-(6-methoxypyridin-2-yl)benzyl]-2-oxoethyl}-4-(4-methylpiperazin-1-yl)quinazoline-7-carboxamide], 19 nM; to `CN1CCN(c2nc(N)nc3cc(C(=O)N[C@@H](Cc4ccc(-c5cccc(C#N)c5)cc4)C(=O)N(C)C)ccc23)CC1` [Example 154, 2-Amino-N-[(1S)-1-[(3′-cyanobiphenyl-4-yl)methyl]-2-(dimethylamino)-2-oxoethyl]-4-(4-methylpiperazin-1-yl)quinazoline-7-carboxamide], 14 nM.
For the compound `CN1CCN(c2nc(N)nc3cc(C(=O)N[C@@H](Cc4ccc(-c5ccc(C#N)cn5)cc4)C(=O)N(C)C)ccc23)CC1` [Example 155, 2-Amino-N-[(1S)-1-[4-(5-cyanopyridin-2-yl)benzyl]-2-(dimethylamino)-2-oxoethyl]-4-(4-methylpiperazin-1-yl)quinazoline-7-carboxamide], the IC50 was 55 nM.
To `CN1CCN(c2nc(N)nc3cc(C(=O)N[C@@H](Cc4ccc(-c5cncc(C#N)c5)cc4)C(=O)N(C)C)ccc23)CC1` [Example 156, 2-Amino-N-[(1S)-1-[4-(5-cyanopyridin-3-yl)benzyl]-2-(dimethylamino)-2-oxoethyl]-4-(4-methylpiperazin-1-yl)quinazoline-7-carboxamide] belongs 41 nM; to `CN1CCN(c2nc(N)nc3cc(C(=O)N[C@@H](Cc4ccc(-c5nc(C(F)(F)F)ccc5C#N)cc4)C(=O)N(C)C)ccc23)CC1` [Example 157, 2-Amino-N-[(1S)-1-{4-[3-cyano-6-(trifluoromethyl)pyridin-2-yl]benzyl}-2-(dimethylamino)-2-oxoethyl]-4-(4-methylpiperazin-1-yl)quinazoline-7-carboxamide], 22 nM.
The same measure for `COC(=O)c1cccc(-c2ccc(C[C@H](NC(=O)c3ccc4c(N5CCN(C)CC5)nc(N)nc4c3)C(=O)N(C)C)cc2)c1` [Example 158, Methyl 4′-[(2S)-2-({[2-amino-4-(4-methylpiperazin-1-yl)quinazolin-7-yl]carbonyl}amino)-3-(dimethylamino)-3-oxopropyl]biphenyl-3-carboxylate]: 6.6 nM.
To `CN1CCN(c2nc(N)nc3cc(C(=O)N[C@@H](Cc4ccc(-c5ccc(F)c(C(F)(F)F)c5)cc4)C(=O)N(C)C)ccc23)CC1` [Example 159, 2-Amino-N-((1S)-2-(dimethylamino)-1-{[4′-fluoro-3′-(trifluoromethyl)biphenyl-4-yl]methyl}-2-oxoethyl)-4-(4-methylpiperazin-1-yl)quinazoline-7-carboxamide] belongs 26 nM.
For the compound `CN1CCN(c2nc(N)nc3cc(C(=O)N[C@@H](Cc4ccc(-c5ccccn5)cc4)C(=O)N(C)C)ccc23)CC1` [Example 160, 2-Amino-N-[(1S)-2-(dimethylamino)-2-oxo-1-(4-pyridin-2-ylbenzyl)ethyl]-4-(4-methylpiperazin-1-yl)quinazoline-7-carboxamide], the IC50 was found to be 52 nM.
Turning to `CN1CCN(c2nc(N)nc3cc(C(=O)N[C@@H](Cc4ccc(-c5cncc(C(F)(F)F)c5)cc4)C(=O)N(C)C)ccc23)CC1` [Example 161, 2-Amino-N-((1S)-2-(dimethylamino)-2-oxo-1-{4-[5-(trifluoromethyl)pyridin-3-yl]benzyl}ethyl)-4-(4-methylpiperazin-1-yl)quinazoline-7-carboxamide], the IC50 came out at 31 nM.
As for `CN1CCN(c2nc(N)nc3cc(C(=O)N[C@@H](Cc4ccc(-c5cccc(Cl)c5Cl)cc4)C(=O)N(C)C)ccc23)CC1` [Example 162, 2-Amino-N-[(1S)-1-[(2′,3′-dichlorobiphenyl-4-yl)methyl]-2-(dimethylamino)-2-oxoethyl]-4-(4-methylpiperazin-1-yl)quinazoline-7-carboxamide], the IC50 is 10 nM.
To `CN1CCN(c2nc(N)nc3cc(C(=O)NC(Cc4ccc(-c5cccc(F)c5F)nc4)C(=O)N(C)C)ccc23)CC1` (stereo not drawn) [Example 163, 2-Amino-N-[1-{[6-(2,3-difluorophenyl)pyridin-3-yl]methyl}-2-(dimethylamino)-2-oxoethyl]-4-(4-methylpiperazin-1-yl)quinazoline-7-carboxamide] belongs 66 nM.
To `COc1ccc(-c2ccc(CC(NC(=O)c3ccc4c(N5CCN(C)CC5)nc(N)nc4c3)C(=O)N(C)C)cn2)cc1` (stereo not drawn) [Example 164, 2-Amino-N-(-2-(dimethylamino)-1-{[6-(4-methoxyphenyl)pyridin-3-yl]methyl}-2-oxoethyl)-4-(4-methylpiperazin-1-yl)quinazoline-7-carboxamide] belongs 57 nM; to `CN1CCN(c2nc(N)nc3cc(C(=O)N[C@@H](Cc4ccc(OC(=O)Nc5cccc(Cl)c5)cc4)C(=O)N(C)C)ccc23)CC1` [Example 165, 4-[(2S)-2-({[2-Amino-4-(4-methylpiperazin-1-yl)quinazolin-7-yl]carbonyl}amino)-3-(dimethylamino)-3-oxopropyl]phenyl (3-chlorophenyl)carbamate], 16 nM; to `COc1ccc(Oc2cccc(CC(NC(=O)c3ccc4c(N5CCN(C)CC5)nc(N)nc4c3)C(=O)N(C)C)c2)cc1` (stereo not drawn) [Example 166, 2-Amino-N-{2-(dimethylamino)-1-[3-(4-methoxyphenoxy)benzyl]-2-oxoethyl}-4-(4-methylpiperazin-1-yl)quinazoline-7-carboxamide], 31 nM.
The same measure for `CN1CCN(c2nc(N)nc3cc(C(=O)NC(Cc4cccc(Oc5cc(Cl)cc(Cl)c5)c4)C(=O)N(C)C)ccc23)CC1` (stereo not drawn) [Example 167, 2-Amino-N-[1-[3-(3,5-dichlorophenoxy)benzyl]-2-(dimethylamino)-2-oxoethyl]-4-(4-methylpiperazin-1-yl)quinazoline-7-carboxamide]: 15 nM.
As for `CN1CCN(c2nc(N)nc3cc(C(=O)NC(Cc4cccc(Oc5nsnc5Cl)c4)C(=O)N(C)C)ccc23)CC1` (stereo not drawn) [Example 168, 2-Amino-N-[1-{3-[(4-chloro-1,2,5-thiadiazol-3-yl)oxy]benzyl}-2-(dimethylamino)-2-oxoethyl]-4-(4-methylpiperazin-1-yl)quinazoline-7-carboxamide], the IC50 was 9.6 nM.
